The supplement of paper PMC8837787

Tested on: Saccharomyces cerevisiae ABC16-Green Monster
Settings: 18 h; 30 °C; YPD
Method in brief: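 Growth of the drug-sensitive yeast strain S. cerevisiae ABC16-Green Monster was followed by OD600 at 0 h and 18 h after log-phase YPD cultures (200 µl per well, 96-well plates) were exposed at 30 °C to compound at final concentrations of 0.1–150 μM in eight 1:2 steps, in biological duplicate. Untreated cultures were run in parallel. Background-subtracted readings were fitted in GraphPad Prism with a variable-slope log(inhibitor) versus response model to give IC50.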

Compound | IC50 growth inhibition [µM]
Cc1cc(Nc2nc(N[C@@H](C)c3ncc(F)cn3)ncc2Cl)n[nH]1 [AZD-1480] | 58.6
CCOc1ccc(Oc2ccc(S(=O)(=O)NC(C)c3ccncc3)cc2)cc1 (centres undefined) | 51.1
COC(=O)C1=C(C)NC(C)=C(C(=O)OC(C)C)C1c1cccc2nonc12 (centres undefined) | 65.4
CC(C)c1cc(NCCCN2CCOCC2)n2ncc(-c3ccccc3)c2n1 | 25.1
CC1CCC2C(C)C(=O)OC3OC4(C)CCC1C32OO4 (centres undefined) [Artemisinin] | 34.3
CC(C)Oc1cc(Nc2nc(N[C@@H](C)c3ccc(F)cc3)c(C#N)cc2F)[nH]n1 [AZD-6918] | > 75
Cc1noc(C)c1C(=O)N1CCCC(c2[nH]c3c(C)cccc3c2-c2ccncc2)C1 (centres undefined) | 20.8
FC(F)(F)c1cccc(-c2nc3c(NCc4ccncc4)nccc3[nH]2)c1 | 41.6
CN(C)CCCN1c2ccccc2CCc2ccc(Cl)cc21.Cl [Clomipramine] | 18.3
Cc1cc(=O)[nH]c(-n2nc(C3CC3)cc2NC(=O)C2(c3ccc(Cl)cc3)CCCC2)n1 [CBR668] | 1.93
CCS(=O)(=O)N1CCN(c2ccc(Nc3ncc(C(N)=O)c(NC4CC4)n3)cc2)CC1 [Cerdulatinib] | 8.06
CC[C@H]1OC(=O)[C@H](C)[C@@H](O[C@H]2C[C@@](C)(OC)[C@@H](O)[C@H](C)O2)[C@H](C)[C@@H](O[C@@H]2O[C@H](C)C[C@H](N(C)C)[C@H]2O)[C@](C)(O)C[C@@H](C)C(=O)[C@H](C)[C@@H](O)[C@]1(C)O [Erythromycin] | > 75
Clc1ccccc1-c1nc([P+](c2ccccc2)(c2ccccc2)c2ccccc2)c(N2CCOCC2)o1 [GNF-PF-2863] | 8.55
Cc1c(C)n(CCCN(C)C)c2ncn3nc(COc4ccccc4)nc3c12 | 39.6
CCC(=C(c1ccc(O)cc1)c1ccc(OCCNC)cc1)c1ccccc1 [Endoxifen] | 8.3
O=C(Nc1ccc(C(F)(F)F)c(C(F)(F)F)c1)c1cc(Cl)ccc1O | 5.64
OCCc1ccc(Nc2nccc(-c3nnc4ccccn34)n2)cc1 | 43.9
CNCCC(Oc1ccc(C(F)(F)F)cc1)c1ccccc1 (centres undefined) [Fluoxetin] | 59.5
CNC(=O)c1cc(Oc2ccc(NC(=O)Nc3ccc(Cl)c(C(F)(F)F)c3)cc2)ccn1 [Sorafenib] | 4.27
CC(C)CC(NC(=O)C(Cc1ccccc1)NC(=O)c1cnccn1)B(O)O (centres undefined) [Bortezomib] | 46.2
Cl.c1ccc(C2CCCC2NC2=NCCCCCCCCCCC2)cc1 (centres undefined) [MDL-12] | 54.6
CS(=O)(=O)CCNCc1ccc(-c2ccc3ncnc(Nc4ccc(OCc5cccc(F)c5)c(Cl)c4)c3c2)o1 [lapatinib] | 5.96
CC(C)c1cc(NCc2ccccn2)n2ncc(-c3ccccc3)c2n1 | 0.45
Cc1nc2ncnn2c(N2CCc3ccccc3C2)c1Cl | 84.8
Cc1nn(C(=O)Nc2cccc(C(F)(F)F)c2)c(C)c1Sc1ncccn1 | 45
FC(F)(F)c1cccc(Nc2nc3ccccc3nc2Nc2cccc(C(F)(F)F)c2)c1 | 1.6
Cc1nc(-c2ccccn2)nc(N2CCC(Cc3ccccc3)C2)c1Cl (centres undefined) | 21

Compound | IC50 growth inhibition [µM]
Cc1nn2c(=O)cc(-c3ccccc3)[nH]c2c1-c1ccc(F)cc1 | 39
Nc1[nH]c(=O)ncc1F [Flucytosine] | 15.1
Cc1cc(C(C)(C)CC(C)(C)C)ccc1OCCOCC[N+](C)(C)Cc1ccccc1 [KAAA726] | 3.74
Brc1cncc(-c2cc(NCCCn3ccnc3)nc(-c3ccccc3)n2)c1 | 23.9
CN(Cc1nc(N)c2c3c(sc2n1)CCCC3)Cc1cccs1 | 107
CN1C=C/C(=C/c2ccc3ccccc3[n+]2C)c2ccccc21 | 51.4
CCCCCc1nnc(NC(=O)c2nccnc2N)s1 | 74.2
CC(=O)Nc1cccc(-n2c(=O)n(C3CC3)c(=O)c3c(Nc4ccc(I)cc4F)n(C)c(=O)c(C)c32)c1 [Trametinib] | > 75
CC(=O)OCC1OC([S-])C(OC(C)=O)C(OC(C)=O)C1OC(C)=O.CCP(CC)CC (centres undefined) [Auranofin] | 27.4
Cc1c(N)nc(C(CC(N)=O)NCC(N)C(N)=O)nc1C(=O)NC(C(=O)NC(C)C(O)C(C)C(=O)NC(C(=O)NCCc1nc(-c2nc(C(=O)NCCC[S+](C)C)cs2)cs1)C(C)O)C(OC1OC(CO)C(O)C(O)C1OC1OC(CO)C(O)C(OC(N)=O)C1O)c1cnc[nH]1 (centres undefined) [Bleomycin (JP1)] | > 75
Cc1nc([P+](c2ccccc2)(c2ccccc2)c2ccccc2)c(SCc2ccccc2)o1 [GNF-Pf-3891] | 5.85
NC(=O)N1CCC(CC(=O)N2CCC([C@H]3c4ncc(Br)cc4CCc4cc(Cl)cc(Br)c43)CC2)CC1 [Lonarfanib] | 20.4
CN1CCN(S(=O)(=O)c2ccc(-c3ccc4c(Nc5ncc(Cl)cn5)ccnc4c3)cc2)CC1 | 43.4
CC1CCC2C(C)C(O)OC3OC4(C)CCC1C32OO4 (centres undefined) [Dihydroartemisinin] | > 75
Cc1ccc2nc(-c3ccc(N(C)C)cc3)[nH]c2c1 | 11.8
C/C=C/[C@H]1O[C@@](O)([C@@H](C)[C@H](O)[C@H](C)[C@H]2OC(=O)/C(OC)=C\C(C)=C\[C@@H](C)[C@@H](O)[C@@H](CC)[C@@H](O)[C@H](C)C/C(C)=C/C=C/[C@@H]2OC)C[C@@H](O[C@H]2C[C@@H](O)[C@H](OC(=N)O)[C@@H](C)O2)[C@@H]1C [Concanamycin A] | 6.1
c1ccc(-c2cc(N3CCCCC3)c3ccccc3n2)nc1 | 42.9
CCN1C(=Cc2cc(C)[n+](CCCN3CCOCC3)c(C)c2)Sc2ccccc21 | 55.3
N=C(N)c1ccc(OCCCCCOc2ccc(C(=N)N)cc2)cc1 [Pentamidine] | 85.9
O=C(Nc1cccc(C(F)(F)F)c1)c1cc(Cl)ccc1O | 4.18
CC(C)Sc1cccc(C(=O)Nc2nnc(-c3ccnn3C(C)C)o2)c1 [CBR113] | 2.48
CC1(COc2ccc(N3CCC(Oc4ccc(OC(F)(F)F)cc4)CC3)cc2)Cn2cc([N+](=O)[O-])nc2O1 (centres undefined) [Delamanid] | > 75
O=C(C(Cc1c[nH]c2ccccc12)NS(=O)(=O)c1ccc(Cl)cc1)N1CCCCC1 (centres undefined) | 42.4
COc1ccc2sc(N(Cc3cccnc3)C(=O)c3ccc(C#N)cc3)nc2c1 | 3.85
CSc1ccccc1C(=O)Nc1nc(-c2ccccn2)cs1 | 10.8
C[C@H](c1ccc2c(c1)CCCC2)N(C)c1ncc2c(N)nc(N)nc2n1 | 30.5
COc1ccc2cc(CN(C)CC(=O)Nc3sccc3C(N)=O)ccc2c1 | 60.6

Compound | IC50 growth inhibition [µM]
CCCCCC(=O)N[C@H](C(=O)N[C@@H](CCS(C)(=O)=O)C(=O)N[C@@H](CC(C)C)C(=O)[C@@]1(C)CO1)C(C)C [Carmaphycin B] | 24.8
CS(=O)(=O)Nc1nc(-c2ccccn2)nc2scc(-c3ccccc3)c12 | 13.8
COc1ccc(C2Sc3ccccc3N=C3C2=C(O)c2ccccc23)cc1 (centres undefined) [GNF-Pf-5129] | 3.97
CC(=O)N(C1=C(N2CCOCC2)C(=O)c2ccccc2C1=O)c1cccc(Cl)c1 [GNF-Pf-2288] | 41.7
Cc1c(C(=O)Nc2ccccc2O)cnn1-c1cccc(C(F)(F)F)c1 | 23.9
CC(C(=O)O)c1ccc2c(c1)[nH]c1ccc(Cl)cc12 (centres undefined) [Carprofen] | > 75
O=C1NCN(c2ccccc2)C12CCN(CCCC(c1ccc(F)cc1)c1ccc(F)cc1)CC2 [Fluspirilene] | 23.3
Cc1ccc(-c2nc(CN(Cc3ccccn3)C(C)C)cs2)o1 | 12
C[C@@H]1COCCN1c1cc(C2(S(C)(=O)=O)CC2)nc(-c2cccc3[nH]ccc23)n1 [AZ-20] | > 75
Cc1ccc(C2Sc3ccccc3N=C3C2=C(O)c2ccccc23)cc1 (centres undefined) [GNF-Pf-5468] | 4.95
O=C(c1cccs1)N1CCN(c2ccc([N+](=O)[O-])c(NC3CC3)c2)CC1 [GNF-Pf-3455] | > 150
O=C(C1CCCCC1)N1CC(=O)N2CCc3ccccc3C2C1 (centres undefined) [Praziquantal] | > 75
C[C@]1(O)C[C@@H](c2nc(-c3ccc4ccc(-c5ccccc5)nc4c3)c3c(N)nccn32)C1 [Linsitinib] | 16
CCCCCCCCCCCCCCCCOP(=O)([O-])OCC[N+](C)(C)C [Miltefosine] | 9.3
OC(c1cc(C(F)(F)F)nc2c(C(F)(F)F)cccc12)C1CCCCN1 (centres undefined) [Mefloquine] | 29.9
Cc1cc(C)n(-c2ccc(CN3c4ccc(S(N)(=O)=O)cc4CC3C)cc2)n1 (centres undefined) | 129
COc1ccccc1C(C)NCC(=O)Nc1cc(C(F)(F)F)ccc1Cl (centres undefined) | 32.4
Cc1cc(Nc2ccc(OCc3ccccc3)cc2)nc2cc(O)ccc12 | 2.38
Nc1nc(F)nc2c1ncn2C1OC(CO)C(O)C1O (centres undefined) [Fludarabine] | > 75
CC(Oc1ccc(Cl)cc1Cl)c1nc(-c2ccc(NC(=O)c3cccs3)cc2)no1 (centres undefined) [GNF-Pf-2823] | 3.9
CC(c1cc(Cl)cc(Cl)c1)N(C)c1ncc2c(N)nc(N)nc2n1 (centres undefined) | 40.1
O=C(Nc1nc(-c2ccccn2)cs1)C1CC1c1ccccc1F (centres undefined) | 6.32
COC(=O)C1=C(C)NC(C)=C(C(=O)OCC(C)C)C1c1ccccc1[N+](=O)[O-] (centres undefined) [Nisoldipine] | 41
O=C(Nc1ccc(Cl)c(Cl)c1)Nc1ccc(Cl)c(Cl)c1 | 0.32
C=CC1(C)CC(=O)C2(O)C(C)(O1)C(OC(C)=O)C(O)C1C(C)(C)CCC(O)C12C (centres undefined) [Forskolin] | > 75
